Measurements: publication PMC7450057, “Enhancing intracellular accumulation and target engagement of PROTACs with reversible covalent chemistry” (Nature Communications, 2020)
Where “and” joins values, the source holds several entries; their conditions need not be identical. Equal values may be shown once. Read-outs that look alike come from different tables or passages of the source.

Legend:
BTK-NanoLuc fusion = molecular target: T1, BTK-NanoLuc fusion (Homo sapiens, UniProt Q06187); test: NanoBRET BTK in-cell target engagement assay; format: cell-based; conditions: for K′P,D (relative intracellular accumulation coefficient): Kd (BTK)/IC50,TE (BTK)
T1 construct: host or cells: HEK 293T/17
Summary of the method: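 Tracer-displacement IC50 derived from background-corrected BRET ratio (450 nm donor, 610 nm acceptor) in live HEK293/T17 cells transfected with BTK-NanoLuc. Cells were exposed for 2 h at 37 °C to 1.0 µM tracer plus 5-fold serial dilutions of compound from 10 µM.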

MOLM-14 cells = test: AlamarBlue cell viability assay, MOLM-14; conditions: for MOLM-14 Cell Viability%: Figure 2f, 5 replicates; for Cell viability, MOML-14: Supplementary Figure 7, replicates
Description: The IC50 was calculated using GraphPad Prism software with a four-parameter dose-response curve fit.

Mino = test: IC50 in MCL cell lines (Supplementary Table 2), Mino; conditions: for Cell Viability (%): Mino cells, replicate wells
BTK = BTK (Mus musculus, UniProt P35991); test: BTK degradation in mouse B-cell lymphoma cell line derived from Eu-Myc mice; format: cell-based; design: endogenous in cells; host or cells: B cell lymphoma cell line derived from Eu-Myc mice; conditions: for BTK quantification (anti-BTK / anti-β-actin): Supplementary Figure 10, replicates, DMSO about 100
Description: MOLM-14 cell line was obtained from Dr. Conneely at Baylor College of Medicine, and the Mino cells were purchased from the American Type Culture Collection (ATCC, Cat. No. CRL-3000). Both cell lines were cultured in RPMI 1640 medium (Thermo Fisher Scientific, Cat. No. MT10040CV) supplemented with 10% fetal bovine serum (GE Healthcare, Cat. No. SH30071.03) and 1% Pen/Strep (Thermo Fisher Scientific, Cat. No. 15140163). The wild-type and C481S BTK XLA cell lines were gifts from Dr. Woyach at The Ohio State University and were cultured in RPMI 1640 medium with 15% fetal bovine serum, 1% Pen/Strep, and 1.0 µg/ml puromycin (Thermo Fisher Scientific, Cat. No. A1113803). HEK 293T/17 cells were purchased from ATCC (Cat. No. CRL-11268) were maintained in DMEM (Thermo Fisher Scientific, Cat. No. MT10013CV) with 10% fetal bovine serum and 1% Pen-Strep. The B cell lymphoma cell line derived from Eu-Myc mice was a gift from Dr. Yulin Li at Houston Methodist Research Institute and cultured in RPMI 1640 medium supplemented with 15% (v/v) fetal bovine serum (FBS), 100 U/mL penicillin, 100 μg/mL streptomycin, and 0.05 mM beta-mercaptoethanol and puromycin (1 μg/mL). Cells were grown at 37 °C with 5% CO2.
The collected cells and spleen tissues were lysed in RIPA lysis buffer (50 mM Tris-HCl, pH 7.4, 150 mM NaCl, 1% NP-40, 0.5% sodium deoxycholate, 0.1% SDS) supplemented with Halt™ Protease and Phosphatase Inhibitor Cocktail (Thermo Fisher Scientific, Cat. No. PI78440) immediately before use. Lysates were centrifuged at 15,000 × g for 10 min at 4 °C and the supernatant was quantified for total protein concentration using the Pierce BCA Protein Assay (Thermo Fisher Scientific, Cat. No. 23225). Thirty micrograms of protein were loaded onto sodium dodecyl sulfate−polyacrylamide gel for electrophoresis (Bio-Rad) and transferred onto PVDF membranes (Millipore, Cat. No. IPVH00010). […] Imaging was performed using the ECL Prime chemiluminescent western blot detection reagents (GE Healthcare, Cat. No. RPN2232) by visualization of the blots to X-Ray film or with an Imager (Kindle Biosciences, Cat. No. D1001). All western blots were subsequently processed and quantified with Imager software. Protein level was normalized to β-actin or GAPDH loading controls.

[1] = Figure 3c, 1.00E-05 M, triplicates
[2] = Figure 3c, 1.60E-08 M, triplicates
[3] = Figure 3c, 2.00E-06 M, triplicates
[4] = Figure 3c, 3.20E-09 M, triplicates
[5] = Figure 3c, 4.00E-07 M, triplicates
[6] = Figure 3c, 8.00E-08 M, triplicates
[7] = HEK-293 cells, BTK tracer 1.0 µM, Table 1 / Fig. 3c, triplicates, read-out: BTK TE IC50,TE
[8] = Homo sapiens, MOLM-14, 72 h, read-out: Cell viability IC50, MOLM-14 cells, 72 h, Alamar Blue

T1 sequence (Q06187 whole entry, the tested form may be a part): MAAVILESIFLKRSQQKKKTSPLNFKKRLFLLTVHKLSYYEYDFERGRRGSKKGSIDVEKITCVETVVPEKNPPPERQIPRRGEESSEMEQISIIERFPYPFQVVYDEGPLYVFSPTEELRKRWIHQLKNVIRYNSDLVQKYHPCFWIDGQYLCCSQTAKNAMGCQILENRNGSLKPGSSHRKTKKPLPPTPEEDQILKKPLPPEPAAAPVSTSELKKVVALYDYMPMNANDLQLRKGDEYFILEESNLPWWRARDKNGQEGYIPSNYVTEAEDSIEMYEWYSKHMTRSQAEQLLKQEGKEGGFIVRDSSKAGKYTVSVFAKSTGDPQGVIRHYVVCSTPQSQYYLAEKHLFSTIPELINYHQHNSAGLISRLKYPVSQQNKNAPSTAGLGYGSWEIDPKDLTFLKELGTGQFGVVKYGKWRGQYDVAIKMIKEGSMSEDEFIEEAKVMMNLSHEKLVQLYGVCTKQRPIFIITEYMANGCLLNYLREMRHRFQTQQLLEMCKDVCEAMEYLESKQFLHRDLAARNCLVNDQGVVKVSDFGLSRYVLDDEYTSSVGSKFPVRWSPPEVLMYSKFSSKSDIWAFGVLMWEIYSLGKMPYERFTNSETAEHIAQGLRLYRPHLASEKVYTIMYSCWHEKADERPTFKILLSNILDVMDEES
Chain of BTK (P35991 whole entry): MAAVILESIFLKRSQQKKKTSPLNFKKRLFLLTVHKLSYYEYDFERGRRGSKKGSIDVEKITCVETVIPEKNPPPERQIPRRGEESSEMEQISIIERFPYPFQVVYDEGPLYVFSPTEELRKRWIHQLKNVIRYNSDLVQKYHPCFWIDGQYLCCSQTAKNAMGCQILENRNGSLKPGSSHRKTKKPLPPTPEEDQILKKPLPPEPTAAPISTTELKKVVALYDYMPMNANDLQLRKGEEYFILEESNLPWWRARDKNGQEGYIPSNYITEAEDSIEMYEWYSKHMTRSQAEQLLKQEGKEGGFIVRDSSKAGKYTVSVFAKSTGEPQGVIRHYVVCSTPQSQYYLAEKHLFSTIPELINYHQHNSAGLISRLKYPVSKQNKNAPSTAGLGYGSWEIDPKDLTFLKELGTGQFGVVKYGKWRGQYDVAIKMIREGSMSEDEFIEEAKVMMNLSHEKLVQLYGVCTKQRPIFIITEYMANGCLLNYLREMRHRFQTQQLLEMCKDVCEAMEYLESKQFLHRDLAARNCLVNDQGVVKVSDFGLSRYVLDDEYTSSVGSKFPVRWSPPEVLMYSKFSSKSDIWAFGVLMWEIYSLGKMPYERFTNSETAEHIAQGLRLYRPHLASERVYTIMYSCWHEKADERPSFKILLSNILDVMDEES

CN(CCCNC(=O)CNc1cccc2c1C(=O)N(C1CCC(=O)NC1=O)C2=O)C(C)(C)C=C(C#N)C(=O)N1CCC[C@@H](n2nc(-c3ccc(Oc4ccccc4)cc3)c3c(N)ncnc32)C1 (stereo partly drawn) [RC-1]
NanoBRET(%) (BTK-NanoLuc fusion; [1]): 5.754% and 14.0151% and 10.6773% | NanoBRET(%) (BTK-NanoLuc fusion; [2]): 84.9586% and 87.9015% and 82.5703% | NanoBRET(%) (BTK-NanoLuc fusion; [3]): 6.342% and 5.596% and 5.448% | NanoBRET(%) (BTK-NanoLuc fusion; [4]): 98.0219% and 99.3574% and 101.289% | NanoBRET(%) (BTK-NanoLuc fusion; [5]): 9.4506% and 5.015% and 9.59% | NanoBRET(%) (BTK-NanoLuc fusion; [6]): 24.5688% and 19.6512% and 23.4022% | NanoBRET(%) (BTK-NanoLuc fusion; Figure 3d, 1.00E-05 M, triplicates): 9.378% and 8.307% and 3.455% | NanoBRET(%) (BTK-NanoLuc fusion; Figure 3d, 1.60E-08 M, triplicates): 87.0885% and 73.1635% and 80.126% | NanoBRET(%) (BTK-NanoLuc fusion; Figure 3d, 2.00E-06 M, triplicates): 4.9185% and 3.718% and 8.9958% | NanoBRET(%) (BTK-NanoLuc fusion; Figure 3d, 3.20E-09 M, triplicates): 95.2579% and 79.7394% and 93.8869% | NanoBRET(%) (BTK-NanoLuc fusion; Figure 3d, 4.00E-07 M, triplicates): 11.2221% and 10.3003% and 9.486% | NanoBRET(%) (BTK-NanoLuc fusion; Figure 3d, 8.00E-08 M, triplicates): 50.6504% and 43.13% and 35.3416% | IC50 (BTK-NanoLuc fusion; [7]): 43 nM | IC50 (BTK-NanoLuc fusion; HEK-293 cells, BTK tracer 1.0 µM, experiment of Fig. 3f, read-out: BTK target engagement IC50): 33 nM | K′P,D (relative intracellular accumulation coefficient) (BTK-NanoLuc fusion): 1.5 × 10^−1 | BTK target engagement (BTK-NanoLuc fusion; at 40 nM): 50% | BTK target engagement (BTK-NanoLuc fusion; at 200 nM): 90% | IC50 (BTK-NanoLuc fusion; experiment of Fig. 3d, read-out: BTK target engagement IC50): 59 nM | MOLM-14 Cell Viability% (MOLM-14 cells; 1.00E-05 M): 9.063% and 7.786% and 9.631% and 4.44% and 5.17% | MOLM-14 Cell Viability% (MOLM-14 cells; 1.60E-08 M): 88.4631% and 84.0227% and 77.0073% and 72.5061% and 64.8418% | MOLM-14 Cell Viability% (MOLM-14 cells; 2.00E-06 M): 14.0511% and 10.5434% and 12.6318% and 8.942% and 10.7462% | MOLM-14 Cell Viability% (MOLM-14 cells; 3.20E-09 M): 89.923% and 89.9432% and 89.2741% and 70.2555% and 64.2336% | MOLM-14 Cell Viability% (MOLM-14 cells; 4.00E-07 M): 53.7916% and 40.7948% and 45.6813% and 36.6383% and 39.4972% | MOLM-14 Cell Viability% (MOLM-14 cells; 6.40E-10 M): 94.6269% and 96.3301% and 81.3058% and 78.386% and 72.2831% | MOLM-14 Cell Viability% (MOLM-14 cells; 8.00E-08 M): 69.5864% and 88.0779% and 68.3495% and 63.8078% and 82.5426% | IC50 (MOLM-14 cells; [8]): 300 nM | IC50 (MOLM-14 cells; read-out: Cell viability IC50, MOLM-14 cells, 72 h, Alamar Blue): 310 nM | Cell Viability (%) (Mino; 1.25E-06 M): 39.6721% and 39.1711% and 38.89% | Cell Viability (%) (Mino; 1.56E-07 M): 67.6678% and 68.2351% and 62.6329% | Cell Viability (%) (Mino; 2.50E-06 M): 36.14% and 35.6851% and 33.7887% | Cell Viability (%) (Mino; 3.13E-07 M): 53.7594% and 53.6077% and 49.7111% | Cell Viability (%) (Mino; 5.00E-06 M): 32.4512% and 31.601% and 30.272% | Cell Viability (%) (Mino; 6.25E-07 M): 49.0909% and 46.392% and 45.7071% | Cell Viability (%) (Mino; 7.81E-08 M): 89.7818% and 79.7053% and 78.5229% | IC50 (Mino; Mino, triplicates): 400 nM | BTK quantification (anti-BTK / anti-β-actin) (BTK; 8 nM): 63.6968 and 56.9893 | BTK quantification (anti-BTK / anti-β-actin) (BTK; 40 nM): 41.0784 and 35.9122 | BTK quantification (anti-BTK / anti-β-actin) (BTK; 200 nM): 29.8182 and 40.565 | maximum BTK degradation (BTK; dosed up to 25 µM, 24 h): 30–40%

CN(CC=CC(=O)N1CCCC(n2nc(-c3ccc(Oc4ccccc4)cc3)c3c(N)ncnc32)C1)CCCNC(=O)CNc1cccc2c1C(=O)N(C1CCC(=O)NC1=O)C2=O (stereo not drawn) [IRC-1]
NanoBRET(%) (BTK-NanoLuc fusion; [1]): 10.4557% and 9.057% and 9.053% | NanoBRET(%) (BTK-NanoLuc fusion; [2]): 96.913% and 93.9025% and 100.93% | NanoBRET(%) (BTK-NanoLuc fusion; [3]): 7.89% and 9.51% and 9.23% | NanoBRET(%) (BTK-NanoLuc fusion; [4]): 94.8058% and 107.984% and 103.91% | NanoBRET(%) (BTK-NanoLuc fusion; [5]): 11.1403% and 9.255% and 17.6554% | NanoBRET(%) (BTK-NanoLuc fusion; [6]): 65.3589% and 58.7338% and 70.2106% | IC50 (BTK-NanoLuc fusion; [7]): 130 nM | K′P,D (relative intracellular accumulation coefficient) (BTK-NanoLuc fusion): 2.3 × 10^−2 | BTK engagement (BTK-NanoLuc fusion; at 400 nM): ~ 100% | intracellular accumulation of RC-1 relative to the compound (BTK-NanoLuc fusion; from K′P,D values, BTK (Table 1)): 6 folds | IC50 (MOLM-14 cells; [8]): 2700 nM | Cell viability, MOML-14 (MOLM-14 cells; drug concentration 1.00E-05 M): 18.0378 and 23.8364 and 27.2416 and 22.4354 and 21.8906 | Cell viability, MOML-14 (MOLM-14 cells; drug concentration 1.60E-08 M): 95.6375 and 84.8576 and 100.21 and 79.6428 and 95.3845 | Cell viability, MOML-14 (MOLM-14 cells; drug concentration 2.00E-06 M): 77.6385 and 69.5439 and 88.1655 and 70.6919 and 85.8499 | Cell viability, MOML-14 (MOLM-14 cells; drug concentration 3.20E-09 M): 83.1063 and 84.2544 and 98.5173 and 96.2017 and 79.9735 | Cell viability, MOML-14 (MOLM-14 cells; drug concentration 4.00E-07 M): 95.365 and 106.398 and 86.1807 and 91.7653 and 81.4134 | Cell viability, MOML-14 (MOLM-14 cells; drug concentration 6.40E-10 M): 91.6096 and 88.3017 and 105.931 and 90.734 and 74.6225 | Cell viability, MOML-14 (MOLM-14 cells; drug concentration 8.00E-08 M): 76.0624 and 92.5825 and 94.7813 and 82.8144 and 77.7553 | BTK quantification (anti-BTK / anti-β-actin) (BTK; 8 nM): 93.1337 and 89.8918 | BTK quantification (anti-BTK / anti-β-actin) (BTK; 40 nM): 73.5656 and 73.5943 | BTK quantification (anti-BTK / anti-β-actin) (BTK; 200 nM): 64.1549 and 63.4726
